Measurements as given in patent publication US20260022143A1, “Cyclic Peptide Inhibitors of IL-23” (JANSSEN PHARMACEUTICA NV, priority 2022, published 2026).
pIC50: −log10 of the molar value. Starred links: 1 amine or outer side, 2 acyl side, 3 side chain; linkers in the order of their positions; H or OH if unused. Positions of bridges follow the written chain, without caps; N, C: chain ends. Non-standard residues stand in square brackets, D forms with d. Residues, ends and D or L forms follow the SMILES beside them. Groups on a side chain read outwards from the residue. *: point of attachment. X16 = C[N+](C)(C)Cc1cn(-c2ccc(C[C@H](N[*:1])C(=O)[*:2])cc2)nn1; Me3N+(CH2)2O(CH2)2O(CH2)2CO = C[N+](C)(C)CCOCCOCCC(=O)*; X35 = Cc1cccc2c(C[C@H](N[*:1])C(=O)[*:2])cn(C)c12; CH2CH2OCH2CH2OCH2CH2NMe3+ = C[N+](C)(C)CCOCCOCC*; Trp(7-Me) = Cc1cccc2c(C[C@H](N)C(=O)O)c[nH]c12; Dab(NMeAc) = CC(=O)N(C)CC[C@H](N)C(=O)O; 2Nal = N[C@@H](Cc1ccc2ccccc2c1)C(=O)O; AEF = NCCOc1ccc(C[C@H](N)C(=O)O)cc1; X19 = C[N+](C)(C)C[C@@H](CC(=O)O)N*; 3Pal = N[C@@H](Cc1cccnc1)C(=O)O; X14 = C[N+](C)(C)CCc1cn(CC*)nn1; Lys(Me) = CNCCCC[C@H](N)C(=O)O; Pen = CC(C)(S)[C@H](N)C(=O)O; Suc = O=C(CCC(=O)[*:2])[*:1]; Thp = NC1(C(=O)O)CCOCC1; X3 = C[N+](C)(C)CCCCC*; Sar = CNCC(=O)O

Assays:
IL-23R = biological target: T1, IL-23R (Homo sapiens, UniProt Q5VWK5); assay: IL23R Reporter Assay; assay type: cell-based; settings: HEK293 cells containing IL-23R, IL-12RP1 and STAT-inducible firefly luciferase reporter; 10 ng/mL IL-23 (EC90); 5 h at 37° C.; read-out: IL23R Reporter Assay
T1 construct: host or cells: HEK293
T1 sequence (Q5VWK5 24-629): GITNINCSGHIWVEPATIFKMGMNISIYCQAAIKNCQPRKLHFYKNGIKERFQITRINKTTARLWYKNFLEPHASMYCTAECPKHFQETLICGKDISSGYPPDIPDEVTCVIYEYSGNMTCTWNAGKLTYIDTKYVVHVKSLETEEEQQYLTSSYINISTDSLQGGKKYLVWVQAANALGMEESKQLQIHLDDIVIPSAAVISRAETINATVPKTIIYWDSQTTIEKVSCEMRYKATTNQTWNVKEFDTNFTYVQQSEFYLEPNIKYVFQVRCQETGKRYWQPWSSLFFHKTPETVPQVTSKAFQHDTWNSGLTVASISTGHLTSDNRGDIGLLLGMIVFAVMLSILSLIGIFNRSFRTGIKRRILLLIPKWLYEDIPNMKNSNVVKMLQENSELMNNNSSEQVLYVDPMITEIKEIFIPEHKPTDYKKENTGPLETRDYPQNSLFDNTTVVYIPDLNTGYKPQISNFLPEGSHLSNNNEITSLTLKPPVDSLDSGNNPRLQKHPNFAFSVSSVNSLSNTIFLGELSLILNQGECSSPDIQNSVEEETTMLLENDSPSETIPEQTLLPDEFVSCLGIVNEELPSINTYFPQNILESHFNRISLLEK

[1] = Exposed Polar Surface Area (EPSA); assay type: physicochemical; settings: SFC on Chirex 3014 column; sample 1 mM DMSO stock; read-out: EPSA
Summary of the method: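 Polarity descriptor in Å² derived from retention time using 8 calibration standards re-run every 20 compounds. Duplicate injections of 1 mM DMSO stock; linear 5–60% modifier gradient (20 mM ammonium formate in MeOH) with CO2 at 4 mL/min, 35 °C, on a Chirex 3014 column.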

| SMILES | pIC50 (IL-23R) | EPSA [1] [A^2] |
| --- | --- | --- |
| CC(=O)NCCCC[C@@H]1NC(=O)[C@H](Cc2cn(C)c3c(C)cccc23)NC(=O)[C@H]([C@@H](C)O)NC(=O)[C@H](CC(N)=O)NC(=O)[C@@H](NC(C)=O)C(C)(C)SSC(C)(C)[C@@H](C(=O)N[C@@H](Cc2ccc(OCCN)cc2)C(=O)N[C@@H](Cc2ccc3ccccc3c2)C(=O)NC2(C(=O)N[C@@H](CCC(=O)O)C(=O)N[C@@H](CC(N)=O)C(=O)N[C@@H](Cc3cccnc3)C(=O)N(C)CC(N)=O)CCOCC2)NC1=O [compound 166] (Ac-[Pen]NT[X35]K(Ac)[Pen][AEF][2Nal][Thp]EN[3Pal][Sar]-NH2; disulfide 1-6 (inferred)) | 8.52 | 179 |
| CC(=O)N[C@H](CCCCNC(=O)CCC(=O)N[C@H](CC(=O)O)C[N+](C)(C)C)C(=O)N[C@@H]1C(=O)N[C@@H](CC(=O)N(C)C)C(=O)N[C@@H]([C@@H](C)O)C(=O)N[C@@H](Cc2c[nH]c3c(C)cccc23)C(=O)N[C@@H](CCCCN(C)C(C)=O)C(=O)N[C@H](C(=O)N[C@@H](Cc2ccc(OCCOCCOCC[N+](C)(C)C)cc2)C(=O)N[C@@H](Cc2ccc3ccccc3c2)C(=O)NC2(C(=O)N[C@@H](CCN(C)C(C)=O)C(=O)N[C@@H](CC(N)=O)C(=O)N[C@@H](Cc3cccnc3)C(=O)N(C)CC(=O)N(C)C)CCOCC2)C(C)(C)SSC1(C)C [compound 213, MeCO-k(d)-Pen(3)-N(N(Me)2)-T-7MeW-K(NMeAc)-Pen(3)-APEG3F-2Nal-THP-Dab(NMeAc)-N-3Pya-Sar-CON(Me)2] (Ac-[dK]([Suc-X19])[Pen]D(NMe2)T[Trp(7-Me)][Lys(Me)](Ac)[Pen]Y(CH2CH2OCH2CH2OCH2CH2NMe3+)[2Nal][Thp][Dab(NMeAc)]N[3Pal][Sar]-NMe2; disulfide 2-7) | 8.29 | 154 |
| CC(=O)N(C)CCCC[C@@H]1NC(=O)[C@H](Cc2c[nH]c3c(C)cccc23)NC(=O)[C@H]([C@@H](C)O)NC(=O)[C@H](CC(=O)N(C)C)NC(=O)[C@@H](NC(=O)CCOCCOCC[N+](C)(C)C)C(C)(C)SSC(C)(C)[C@@H](C(=O)N[C@@H](Cc2ccc(OCCn3cc(CC[N+](C)(C)C)nn3)cc2)C(=O)N[C@@H](Cc2ccc3ccccc3c2)C(=O)NC2(C(=O)N[C@@H](CCCCN(C)C(C)=O)C(=O)N[C@@H](CC(N)=O)C(=O)N[C@@H](Cc3cccnc3)C(=O)N(C)CC(=O)N(C)C)CCOCC2)NC1=O [compound 286, cPEG3aCO-Pen(3)-N(N(Me)2)-T-7MeW-K(NMeAc)-Pen(3)-Y(OTzlCh)-2Nal-THP-K(NMeAc)-N-3Pya-Sar-CON(Me)2] ({Me3N+(CH2)2O(CH2)2O(CH2)2CO}-[Pen]D(NMe2)T[Trp(7-Me)][Lys(Me)](Ac)[Pen]Y(X14)[2Nal][Thp][Lys(Me)](Ac)N[3Pal][Sar]-NMe2; disulfide 1-6) | 8.49 | 149 |
| CC(=O)N[C@H](COCCOCC[N+](C)(C)C)C(=O)N[C@@H]1C(=O)N[C@@H](CC(=O)N(C)C)C(=O)N[C@@H]([C@@H](C)O)C(=O)N[C@@H](Cc2c[nH]c3c(C)cccc23)C(=O)N[C@@H](CCCCN(C)C(C)=O)C(=O)N[C@H](C(=O)N[C@@H](Cc2ccc(OCCOCCOCC[N+](C)(C)C)cc2)C(=O)N[C@@H](Cc2ccc3ccccc3c2)C(=O)NC2(C(=O)N[C@@H](CCCCN(C)C(C)=O)C(=O)N[C@@H](CC(N)=O)C(=O)N[C@@H](Cc3cccnc3)C(=O)N(C)CC(=O)N(C)C)CCOCC2)C(C)(C)SSC1(C)C [compound 232, MeCO-APEG2ser-Pen(3)-N(N(Me)2)-T-7MeW-K(NMeAc)-Pen(3)-APEG3F-2Nal-THP-K(NMeAc)-N-3Pya-Sar-CON(Me)2] | 8.47 | 140 |

Now from value to molecule:

| pIC50 (IL-23R) | EPSA [1] [A^2] | SMILES |
| --- | --- | --- |
| 8.35 | 185 | CC(=O)NCCCC[C@@H]1NC(=O)[C@H](Cc2c[nH]c3c(C)cccc23)NC(=O)[C@H]([C@@H](C)O)NC(=O)[C@H](CC(N)=O)NC(=O)[C@@H](NC(=O)C(COCCOCC[N+](C)(C)C)NC(C)=O)C(C)(C)SSC(C)(C)[C@@H](C(=O)N[C@@H](Cc2ccc(OCCN)cc2)C(=O)N[C@@H](Cc2ccc3ccccc3c2)C(=O)NC2(C(=O)N[C@@H](CCC(=O)O)C(=O)N[C@@H](CC(N)=O)C(=O)N[C@@H](Cc3cccnc3)C(=O)N(C)CC(N)=O)CCOCC2)NC1=O (mixture of isomers) [compound 553, MeCO-APEG2Ser(RS)-Pen(3)-N-T-7MeW-K(Ac)-Pen(3)-AEF-2Nal-THP-E-N-3Pya-Sar-CONH2] |
| 7.62 | 144 | COCC[N+](C)(C)CCc1cn(C[C@H](NC(=O)[C@H]2NC(=O)[C@H](CCCCN(C)C(C)=O)NC(=O)[C@H](Cc3c[nH]c4c(C)cccc34)NC(=O)[C@H]([C@@H](C)O)NC(=O)[C@H](CC(=O)N(C)C)NC(=O)[C@@H](NC(=O)CCOCCOCC[N+](C)(C)C)C(C)(C)SSC2(C)C)C(=O)N[C@@H](Cc2ccc3ccccc3c2)C(=O)NC2(C(=O)N[C@@H](CCCCN(C)C(C)=O)C(=O)N[C@@H](CC(N)=O)C(=O)N[C@@H](Cc3cccnc3)C(=O)N(C)CC(=O)N(C)C)CCOCC2)nn1 [compound 288, cPEG3aCO-Pen(3)-N(N(Me)2)-T-7MeW-K(NMeAc)-Pen(3)-TzlChmPEG-2Nal-THP-K(NMeAc)-N-3Pya-Sar-CON(Me)2] |
| 8.80 | 163 | CC(=O)NCCCC[C@@H]1NC(=O)[C@H](Cc2c[nH]c3c(C)cccc23)NC(=O)[C@H]([C@@H](C)O)NC(=O)[C@H](CC(N)=O)NC(=O)[C@@H](NC(C)=O)C(C)(C)SSC(C)(C)[C@@H](C(=O)N[C@@H](Cc2ccc(-n3cc(C[N+](C)(C)C)nn3)cc2)C(=O)N[C@@H](Cc2ccc3ccccc3c2)C(=O)NC2(C(=O)N[C@@H](CCCCNC(C)=O)C(=O)N[C@@H](CC(N)=O)C(=O)N[C@@H](Cc3cccnc3)C(=O)N(C)CC(N)=O)CCOCC2)NC1=O [compound 426] (Ac-[Pen]NT[Trp(7-Me)]K(Ac)[Pen][X16][2Nal][Thp]K(Ac)N[3Pal][Sar]-NH2; disulfide 1-6 (inferred)) |
| < 5.92 | 159 | CC(=O)N(C)CCCC[C@@H]1NC(=O)[C@H](Cc2c[nH]c3c(C)cccc23)NC(=O)[C@H]([C@@H](C)O)NC(=O)[C@H](CC(=O)N(C)C)NC(=O)[C@@H](NC(=O)CCOCCOCC[N+](C)(C)C)C(C)(C)SSC(C)(C)[C@@H](C(=O)N[C@@H](Cc2ccc(OCCCCC[N+](C)(C)C)cc2)C(=O)N[C@@H](C)C(=O)NC2(C(=O)N[C@@H](CCCCN(C)C(C)=O)C(=O)N[C@@H](CC(N)=O)C(=O)N[C@@H](Cc3cccnc3)C(=O)N(C)CC(=O)N(C)C)CCOCC2)NC1=O [compound 500, cPEG3aCO-Pen(3)-N(N(Me)2)-T-7MeW-K(NMeAc)-Pen(3)-TMApF-A-THP-K(NMeAc)-N-3Pya-Sar-CON(Me)2] ({Me3N+(CH2)2O(CH2)2O(CH2)2CO}-[Pen]D(NMe2)T[Trp(7-Me)][Lys(Me)](Ac)[Pen]Y(X3)A[Thp][Lys(Me)](Ac)N[3Pal][Sar]-NMe2; disulfide 1-6) |
| < 5.48 | 137 | CC(=O)N(C)CCCC[C@@H]1NC(=O)[C@H](CC(C)C)NC(=O)[C@H]([C@@H](C)O)NC(=O)[C@H](CC(=O)N(C)C)NC(=O)[C@@H](NC(=O)CCOCCOCC[N+](C)(C)C)C(C)(C)SSC(C)(C)[C@@H](C(=O)N[C@@H](Cc2ccc(OCCOCCOCC[N+](C)(C)C)cc2)C(=O)N[C@@H](CC(C)C)C(=O)NC2(C(=O)N[C@@H](CCCCN(C)C(C)=O)C(=O)N[C@@H](CC(N)=O)C(=O)N[C@@H](Cc3cccnc3)C(=O)N(C)CC(=O)N(C)C)CCOCC2)NC1=O [compound 566, cPEG3aCO-Pen(3)-N(N(Me)2)-T-L-K(NMeAc)-Pen(3)-APEG3F-L-THP-K(NMeAc)-N-3Pya-Sar-CON(Me)2] ({Me3N+(CH2)2O(CH2)2O(CH2)2CO}-[Pen]D(NMe2)TL[Lys(Me)](Ac)[Pen]Y(CH2CH2OCH2CH2OCH2CH2NMe3+)L[Thp][Lys(Me)](Ac)N[3Pal][Sar]-NMe2; disulfide 1-6) |
